# Target: ASK1 kinase (Homo sapiens (Human), UniProt Q99683)
# Experiment: RBC Kinase Assay (33P-ATP radiometric, myelin basic protein substrate)
# Type: biochemical
# Details: 20 ng ASK1 kinase, MBP substrate, 120 min at room temperature, 1% DMSO
# Procedure: Example B1. RBC Kinase Assay Protocol
# Base Reaction buffer: 20 mM Hepes (pH 7.5), 10 mM MgCl2, 1 mM EGTA, 0.02% Brij35, 0.02 mg/ml BSA, 0.1 mM Na3VO4, 2 mM DTT, and 1% DMSO were used for the assay.
# Myelin base protein (MPB) was prepared in freshly prepared Base Reaction Buffer. 20 ng of ASK1 kinase was delivered into the substrate solution and gently mixed. Compounds in DMSO were delivered into the kinase reaction mixture (final DMSO concentration 1%). Commercially available 33P-ATP was delivered into the reaction mixture to initiate the reaction. The kinase reaction was incubated for 120 min. at room temperature. Reactions were spotted onto P81 ion exchange paper (Whatman #3698-915). Filters were washed extensively in 0.75% Phosphoric acid. Radioactivity on filters was read, and IC50 values were determined.
# Chain of ASK1 kinase (Q99683 whole entry): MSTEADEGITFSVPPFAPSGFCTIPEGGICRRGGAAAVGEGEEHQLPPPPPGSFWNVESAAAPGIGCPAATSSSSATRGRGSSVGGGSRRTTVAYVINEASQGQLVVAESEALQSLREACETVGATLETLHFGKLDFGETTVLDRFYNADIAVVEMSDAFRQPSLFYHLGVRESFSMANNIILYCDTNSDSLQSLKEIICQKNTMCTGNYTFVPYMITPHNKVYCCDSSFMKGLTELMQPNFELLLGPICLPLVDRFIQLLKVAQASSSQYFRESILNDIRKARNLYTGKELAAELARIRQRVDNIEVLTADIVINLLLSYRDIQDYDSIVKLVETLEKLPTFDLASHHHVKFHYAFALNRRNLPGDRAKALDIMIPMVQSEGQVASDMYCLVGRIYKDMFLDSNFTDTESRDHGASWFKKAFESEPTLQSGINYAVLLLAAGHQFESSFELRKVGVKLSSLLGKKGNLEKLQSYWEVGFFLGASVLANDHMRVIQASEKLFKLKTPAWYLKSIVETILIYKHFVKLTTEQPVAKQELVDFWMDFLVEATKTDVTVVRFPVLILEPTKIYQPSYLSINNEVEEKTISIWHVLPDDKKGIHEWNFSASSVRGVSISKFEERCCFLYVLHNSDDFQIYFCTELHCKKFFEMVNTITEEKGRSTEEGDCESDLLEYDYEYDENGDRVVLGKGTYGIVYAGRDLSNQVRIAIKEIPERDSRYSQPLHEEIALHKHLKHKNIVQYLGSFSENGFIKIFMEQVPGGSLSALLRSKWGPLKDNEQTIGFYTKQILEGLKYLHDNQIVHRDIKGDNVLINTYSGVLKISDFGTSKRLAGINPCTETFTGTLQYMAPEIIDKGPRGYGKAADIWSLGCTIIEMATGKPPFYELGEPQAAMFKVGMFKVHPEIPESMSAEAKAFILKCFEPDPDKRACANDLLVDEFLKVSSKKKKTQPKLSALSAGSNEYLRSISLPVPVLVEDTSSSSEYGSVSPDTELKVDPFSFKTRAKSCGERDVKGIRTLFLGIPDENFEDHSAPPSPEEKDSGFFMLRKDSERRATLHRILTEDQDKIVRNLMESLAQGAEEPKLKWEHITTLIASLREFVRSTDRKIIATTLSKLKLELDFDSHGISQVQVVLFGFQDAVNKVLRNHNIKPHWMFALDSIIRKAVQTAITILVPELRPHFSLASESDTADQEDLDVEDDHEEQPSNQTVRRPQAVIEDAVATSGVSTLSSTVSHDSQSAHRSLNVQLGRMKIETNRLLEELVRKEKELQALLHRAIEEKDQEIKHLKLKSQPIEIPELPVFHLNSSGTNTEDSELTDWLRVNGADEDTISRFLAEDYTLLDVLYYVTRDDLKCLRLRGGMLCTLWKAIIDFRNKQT
row,IC50 [nM],SMILES
1,2.2,"C[C@@H]1COCCN1c1cnc(C(=O)Nc2cccc3c2OCCn2nnnc2-3)cc1-n1cnc(C2CC2)c1 [Example 70, (R)-4-(4-cyclopropyl-1H-imidazol-1-yl)-N-(5,6-dihydrobenzo[f]tetrazolo[1,5-d][1,4]oxazepin-8-yl)-5-(3-methylmorpholino)picolinamide]"
2,35.2,"O=C(Nc1cccc2c1OCCn1cnnc1-2)c1cc(-n2cnc(C3CC3)c2)ccn1 [Example 56, 4-(4-cyclopropyl-1H-imidazol-1-yl)-N-(5,6-dihydrobenzo[f][1,2,4]triazolo[4,3-d][1,4]oxazepin-8-yl)picolinamide]"
3,6,"C[C@H]1CN(c2cnc(C(=O)Nc3cccc4c3OCCn3nnnc3-4)cc2-n2cnc(C3CC3)c2)CCO1 [Example 66, (S)-4-(4-cyclopropyl-1H-imidazol-1-yl)-N-(5,6-dihydrobenzo[f]tetrazolo[1,5-d][1,4]oxazepin-8-yl)-5-(2-methylmorpholino)picolinamide]"
4,5.3,"CC(C)Oc1cnc(C(=O)Nc2cccc3c2OC[C@H](C)n2nnnc2-3)cc1-n1cnc(C2CC2)c1 [Example 71, (S)-4-(4-cyclopropyl-1H-imidazol-1-yl)-5-isopropoxy-N-(5-methyl-5,6-dihydrobenzo[f]tetrazolo[1,5-d][1,4]oxazepin-8-yl)picolinamide]"

# Second part, the compound before the results:
row,SMILES,IC50 [nM]
1,"Cc1cc(F)c(C(=O)Nc2cccc3c2OC[C@@H]([C@H](C)O)n2nnnc2-3)cc1-n1cnc(C2CC2)c1 [Example 48, 5-(4-cyclopropyl-1H-imidazol-1-yl)-2-fluoro-N—((S)-5-((S)-1-hydroxyethyl)-5,6-dihydrobenzo[f]tetrazolo[1,5-d][1,4]oxazepin-8-yl)-4-methylbenzamide]",5.1
2,"CC1(C)COc2c(NC(=O)c3cc(-n4cnc(C5CC5)c4)c(N4CCOCC4)cn3)cccc2-c2nnnn21 [Example 37, 4-(4-cyclopropyl-1H-imidazol-1-yl)-N-(5,5-dimethyl-5,6-dihydrobenzo[f]tetrazolo[1,5-d][1,4]oxazepin-8-yl)-5-morpholinopicolinamide]",0.5
3,"Cc1cc(F)c(C(=O)Nc2cccc3c2OC[C@@H]([C@@H](C)O)n2nnnc2-3)cc1-n1cnc(C2CC2)c1 [Example 53, 5-(4-cyclopropyl-1H-imidazol-1-yl)-2-fluoro-N—((S)-5-((R)-1-hydroxyethyl)-5,6-dihydrobenzo[f]tetrazolo[1,5-d][1,4]oxazepin-8-yl)-4-methylbenzamide]",6.4
4,"Cc1cc(F)c(C(=O)Nc2cccc3c2OC[C@H](C)n2cnnc2-3)cc1-n1cnc(C2CC2)c1 [Example 2, (S)-5-(4-cyclopropyl-1H-imidazol-1-yl)-2-fluoro-4-methyl-N-(5-methyl-5,6-dihydrobenzo[f][1,2,4]triazolo[4,3-d][1,4]oxazepin-8-yl)benzamide]",9.1
5,"Cc1cc(F)c(C(=O)Nc2cccc3c2OCCn2nncc2-3)cc1-n1cnc(C2CC2)c1 [Example 40, 5-(4-cyclopropyl-1H-imidazol-1-yl)-N-(5,6-dihydrobenzo[f][1,2,3]triazolo[1,5-d][1,4]oxazepin-8-yl)-2-fluoro-4-methylbenzamide]",0.5
6,"Cc1cc(F)c(C(=O)Nc2cccc3c2OC[C@H](C)n2cncc2-3)cc1-n1cnc(C2CC2)c1 [Example 46, (S)-5-(4-cyclopropyl-1H-imidazol-1-yl)-2-fluoro-4-methyl-N-(5-methyl-5,6-dihydrobenzo[f]imidazo[1,5-d][1,4]oxazepin-8-yl)benzamide]",15.1
7,"C[C@H]1COc2c(NC(=O)c3cc(-n4cnc(C5CC5)c4)c(N4CCOCC4)cn3)cccc2-c2nnnn21 [Example 22, (S)-4-(4-cyclopropyl-1H-imidazol-1-yl)-N-(5-methyl-5,6-dihydrobenzo[f]tetrazolo[1,5-d][1,4]oxazepin-8-yl)-5-morpholinopicolinamide]",0.6
8,"C[C@@H]1COc2c(NC(=O)c3cc(-n4cnc(C5CC5)c4)c(N4CCOCC4)cn3)cccc2-c2nncn21 [Example 39, (R)-4-(4-cyclopropyl-1H-imidazol-1-yl)-N-(5-methyl-5,6-dihydrobenzo[f][1,2,4]triazolo[4,3-d][1,4]oxazepin-8-yl)-5-morpholinopicolinamide]",5.5

# Source: patent US10919911B2, “Tricyclic ASK1 inhibitors” (Terns, Inc., priority 2018, dated 2021)
